From publication PMC12310023 (PLOS Neglected Tropical Diseases, 2025)
Where “and” joins values, the source holds several entries; their conditions need not be identical. Identical values can stand only once.

Columns and labels:
HEK293T = assay: 72H HEK293T Cytotoxicity; type: cell-based
[1] = test system: C. parvum Zambriski Laboratory isolate; assay: Calibr high-content imaging Cryptosporidium panel; type: cell-based, Cryptosporidium parvum; details: Calibr Crypto Panel 2
HCT-8 cells = assay: HCT-8 host cell count (Calibr); details: read-out: HCT-8 Cell Count CC50; host cells infected with Sterling oocysts
[2] = test system: C. parvum U AZ Laboratory isolate; assay: microbe, parasite or virus in culture; type: cell-based, Cryptosporidium parvum
C. hominis TU502 isolate = assay: Calibr high-content imaging Cryptosporidium panel; type: cell-based, Cryptosporidium hominis
[3] = test system: C. parvum Bunch Grass Farms isolate; assay: Calibr high-content imaging Cryptosporidium panel; type: cell-based, Cryptosporidium parvum; details: Calibr Crypto Panel 2
5-HT2B = target: T1, 5-HT2B (Homo sapiens, UniProt P41595); assay: Cerep binding assay; details: agonist radioligand, mean, read-out: % inhibition of control specific binding
T1 construct: Cerep (Eurofins, France)
T1 sequence (P41595 whole entry): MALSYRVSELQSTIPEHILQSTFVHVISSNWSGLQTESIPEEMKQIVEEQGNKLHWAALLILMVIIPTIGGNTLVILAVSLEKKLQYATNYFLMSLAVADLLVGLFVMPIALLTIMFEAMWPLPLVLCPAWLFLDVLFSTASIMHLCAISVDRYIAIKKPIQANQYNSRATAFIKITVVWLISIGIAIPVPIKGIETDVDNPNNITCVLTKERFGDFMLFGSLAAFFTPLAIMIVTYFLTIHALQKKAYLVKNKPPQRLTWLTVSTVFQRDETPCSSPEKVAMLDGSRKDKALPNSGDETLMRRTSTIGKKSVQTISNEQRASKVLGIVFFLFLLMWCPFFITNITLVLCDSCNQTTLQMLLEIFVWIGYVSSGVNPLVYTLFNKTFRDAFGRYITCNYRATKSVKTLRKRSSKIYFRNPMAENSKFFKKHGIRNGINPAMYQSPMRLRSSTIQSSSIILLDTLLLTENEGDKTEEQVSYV

[4] = dog, in vivo
[5] = test system: NLuc-expressing C. parvum; parameters: method as in PMID 30830766; details: 8 mg/kg QD x 5 PO, 20 days p.i.; cited from earlier work
C. parvum = details: bovine, in vivo
[6] = female, Balb/c, mouse, in vivo
[7] = cited from earlier work
NLuc C. parvum = test system: NLuc C. parvum; parameters: method as in PMID 30830766; details: cited from earlier work
[8] = test system: micronuclei in interphase cells; assay: In vitro micronucleus (IVMN) test
[9] = test system: NLuc-expressing C. parvum; assay: NLuc C. parvum IFNγ-KO mouse infection model, oocyst shedding; type: in vivo
[10] = test system: A-375, Hs294T, MEWO, and Colo678 carcinoma cell lines
[11] = Mouse plasma, brain and GI exposure PK, Balb/c, 30 mg/kg PO; details: Brains, 0.5 hr, individual samples

## CCOc1ccc2cc(-c3nn(CC4CCN(C)CC4)c4ncnc(N)c34)ccc2c1 [BKI-1294]
HEK293T
  CC50: 22.2 µM
[1]; read-out: Wild C. parvum Spot Count EC50
  EC50: 337 nM
[1]; read-out: Wild C. parvum Spot Count EC90
  EC90: 27.3 µM
HCT-8 cells
  CC50: > 25 µM
[2]; Calibr Crypto Panel 2, 2018-06-18, read-out: Sterling Lab C. parvum Spot Count EC50
  EC50: 468 nM
[2]; Calibr Crypto Panel 2, read-out: Sterling Lab C. parvum Spot Count EC90
  EC90: 8.29 µM
C. hominis TU502 isolate; Calibr Crypto Panel 2, 2018-07-02, read-out: C. hominis Spot Count EC50
  EC50: 2820 nM
C. hominis TU502 isolate; Calibr Crypto Panel 2, read-out: C. hominis Spot Count EC90
  EC90: 14.8 µM
[3]; read-out: Bunch Grass Farm C. parvum Spot Count EC50
  EC50: 2020 nM
[3]; read-out: Bunch Grass Farm C. parvum Spot Count EC90
  EC90: 5.44 µM

## CC(C)(CO)Cn1nc(-c2ccc3cc(OC4CC4)ccc3c2)c(C(N)=O)c1N [BKI-1708]
5-HT2B
  inhibition at 10 µM: 24.3%
[4]
  plasma level without appreciable effect on MAP, HR, contractility, SVR, CO, QT, QRS, PR: 95 µM
[5]
  log reduction in oocyst shedding over untreated controls: > 3 log
C. parvum
  Clinical scores: 10.5
  Weights, %∆: 6.329% and 8.511% and 5.263%
  Weights, %∆, mean: 6.701%
[6]
  postnatal mortality (%): 0%
[7]
  maximum tolerated single dose: 400 mg/kg
NLuc C. parvum
  EC50: 400 nM
[8]
  IVMN test result: no change in the frequency of micronucleated cells
[9]; 8 mg/kg QD x 3
  efficacy: failed to recapitulate efficacy
[9]; 15 mg/kg x 2 days, day 20 p.i.
  log reduction in oocyst shedding: 2.1 log
[9]; 60, 30 and 15 mg/kg QD x 3, up to 20 days p.i.
  log reduction vs peak infection levels of untreated control: > 4 log
[9]; BKI-1708 15 mg/kg QD x 3 PO
  day p.i. oocyst shedding reached LoD: ≤ 13 days
[9]; BKI-1708 30 mg/kg QD x 3 PO
  day p.i. oocyst shedding reached LoD: ≤ 13 days
[9]; BKI-1708 60 mg/kg QD x 3 PO
  day p.i. oocyst shedding below LoD: ≤ 10 days
[9]; single 15 mg/kg dose, 13 days p.i.
  log reduction in oocyst shedding: 1.4 log
[9]; single 15 mg/kg dose, 20 days p.i.
  log reduction in oocyst shedding: 1.7 log
[9]; single 60 mg/kg dose, 13 days p.i.
  log reduction in oocyst shedding: 3.5 log

## CC(=O)Nc1cccc(-n2c(=O)n(C3CC3)c(=O)c3c(Nc4ccc(I)cc4F)n(C)c(=O)c(C)c32)c1 [Trametinib]
[10]
  inhibitory concentration in MEK1 proliferation-dependent cell lines: 7 to 60 nM

## CC1(C)Cn2nc(-c3ccc4cc(OC5CC5)ccc4c3)c(C(N)=O)c2NC1O (stereo not shown) [compound 1862]
[11]
  Brains concentration: 0.0641 µM
[9]; 8 mg/kg x 3 d, Day 6
  RLU Raw: 1384352 RLU
[9]; 8 mg/kg x 3 d, Day 7
  RLU Raw: 821824 RLU
[9]; 8 mg/kg x 3 d, Day 8
  RLU Raw: 1485152 RLU
[9]; 8 mg/kg x 3 d, Day 9
  RLU Raw: 162144 RLU
[9]; 8 mg/kg x 3 d, Day 10
  RLU Raw: 41552 RLU
[9]; 8 mg/kg x 3 d, Day 13
  RLU Raw: 6176 RLU
[9]; 8 mg/kg x 3 d, Day 15
  RLU Raw: 4992 RLU
[9]; 8 mg/kg x 3 d, Day 17
  RLU Raw: 608 RLU
[9]; 8 mg/kg x 3 d, Day 20
  RLU Raw: 1296 RLU
[9]; 8 mg/kg x 3 d, day 6 p.i.
  RLU standardized by fecal weight (Normalized): 226943 RLU
[9]; 8 mg/kg x 3 d, day 7 p.i.
  RLU standardized by fecal weight (Normalized): 75397 RLU
[9]; 8 mg/kg x 3 d, day 8 p.i.
  RLU standardized by fecal weight (Normalized): 146320 RLU
[9]; 8 mg/kg x 3 d, day 9 p.i.
  RLU standardized by fecal weight (Normalized): 15516 RLU
[9]; 8 mg/kg x 3 d, day 10 p.i.
  RLU standardized by fecal weight (Normalized): 4240 RLU
[9]; 8 mg/kg x 3 d, day 13 p.i.
  RLU standardized by fecal weight (Normalized): 468 RLU
[9]; 8 mg/kg x 3 d, day 15 p.i.
  RLU standardized by fecal weight (Normalized): 409 RLU
[9]; 8 mg/kg x 3 d, day 17 p.i.
  RLU standardized by fecal weight (Normalized): 61 RLU
[9]; 8 mg/kg x 3 d, day 20 p.i.
  RLU standardized by fecal weight (Normalized): 214 RLU
[9]; 15 mg/kg x 3 d, Day 6
  RLU Raw: 1490624 RLU
[9]; 15 mg/kg x 3 d, Day 7
  RLU Raw: 876560 RLU
[9]; 15 mg/kg x 3 d, Day 8
  RLU Raw: 670544 RLU
[9]; 15 mg/kg x 3 d, Day 9
  RLU Raw: 9856 RLU
[9]; 15 mg/kg x 3 d, Day 10
  RLU Raw: 2928 RLU
[9]; 15 mg/kg x 3 d, Day 13
  RLU Raw: 512 RLU
[9]; 15 mg/kg x 3 d, Day 15
  RLU Raw: 400 RLU
[9]; 15 mg/kg x 3 d, Day 17
  RLU Raw: 288 RLU
[9]; 15 mg/kg x 3 d, Day 20
  RLU Raw: 192 RLU
[9]; 15 mg/kg x 3 d, day 6 p.i.
  RLU standardized by fecal weight (Normalized): 200084 RLU
[9]; 15 mg/kg x 3 d, day 7 p.i.
  RLU standardized by fecal weight (Normalized): 110259 RLU
[9]; 15 mg/kg x 3 d, day 8 p.i.
  RLU standardized by fecal weight (Normalized): 111757 RLU
[9]; 15 mg/kg x 3 d, day 9 p.i.
  RLU standardized by fecal weight (Normalized): 1398 RLU
[9]; 15 mg/kg x 3 d, day 10 p.i.
  RLU standardized by fecal weight (Normalized): 284 RLU
[9]; 15 mg/kg x 3 d, day 13 p.i.
  RLU standardized by fecal weight (Normalized): 37 RLU
[9]; 15 mg/kg x 3 d, day 15 p.i.
  RLU standardized by fecal weight (Normalized): 29 RLU
[9]; 15 mg/kg x 3 d, day 17 p.i.
  RLU standardized by fecal weight (Normalized): 32 RLU
[9]; 15 mg/kg x 3 d, day 20 p.i.
  RLU standardized by fecal weight (Normalized): 66 RLU
[9]; 30 mg/kg x 3 d, Day 6
  RLU Raw: 1093968 RLU
[9]; 30 mg/kg x 3 d, Day 7
  RLU Raw: 650000 RLU
[9]; 30 mg/kg x 3 d, Day 8
  RLU Raw: 37104 RLU
[9]; 30 mg/kg x 3 d, Day 9
  RLU Raw: 1536 RLU
[9]; 30 mg/kg x 3 d, Day 10
  RLU Raw: 336 RLU
[9]; 30 mg/kg x 3 d, Day 13
  RLU Raw: 208 RLU
[9]; 30 mg/kg x 3 d, Day 15
  RLU Raw: 240 RLU
[9]; 30 mg/kg x 3 d, Day 17
  RLU Raw: 2640 RLU
[9]; 30 mg/kg x 3 d, Day 20
  RLU Raw: 192 RLU
[9]; 30 mg/kg x 3 d, day 6 p.i.
  RLU standardized by fecal weight (Normalized): 163279 RLU
[9]; 30 mg/kg x 3 d, day 7 p.i.
  RLU standardized by fecal weight (Normalized): 191176 RLU
[9]; 30 mg/kg x 3 d, day 8 p.i.
  RLU standardized by fecal weight (Normalized): 11969 RLU
[9]; 30 mg/kg x 3 d, day 9 p.i.
  RLU standardized by fecal weight (Normalized): 290 RLU
[9]; 30 mg/kg x 3 d, day 10 p.i.
  RLU standardized by fecal weight (Normalized): 51 RLU
[9]; 30 mg/kg x 3 d, day 13 p.i.
  RLU standardized by fecal weight (Normalized): 29 RLU
[9]; 30 mg/kg x 3 d, day 15 p.i.
  RLU standardized by fecal weight (Normalized): 21 RLU
[9]; 30 mg/kg x 3 d, day 17 p.i.
  RLU standardized by fecal weight (Normalized): 290 RLU
[9]; 30 mg/kg x 3 d, day 20 p.i.
  RLU standardized by fecal weight (Normalized): 23 RLU
